Series [1] can be described thus: Protection against 5-FU- and irinotecan-induced toxicities. Also on record: species or system mice and rats. The note with it: in vivo; daily ×3 or weekly ×4. Here is the method:
(§1) Studies were carried out in normal rats, rats bearing colon tumors and xenografts bearing human colon carcinoma, HCT8 and HT-29. Studies were carried out to test the hypothesis that elsiglutide offers selective protection against 5-Fluorouvacil-(5-FU) and irinotecan-induced toxicities and potentially enhances their antitumor activity. Elsiglutide was administered subcutaneously at non-toxic but therapeutically-effective dose of 1.8 mg/kg/day daily for 4 days, 30 min prior to each 5-FU/irinotecan dose. The tested doses of 5-FU were 100 mg/kg (MTD) and 200 mg/kg, and the doses of irinotecan were 100 mg/kg (MTD) and 200 mg/kg, either daily ×3 or weekly ×4.

Series [2] concerns rats bearing colon tumors and xenografts bearing human colon carcinoma, HCT8 and HT-29. Description: Antitumor activity in tumor-bearing rodents. The class given is in vivo. As to conditions: 5-FU/irinotecan alone. Here is the method: as §1
The subject of the next series is spleen of Fischer rats. Description: Histopathological evaluation of spleen. As to conditions: Group 8, irinotecan 200 mg/kg i.v.; 5 dead animals. The class given is in vivo, rat. As to the method:
(§2) The spleen and bone marrow of sternum of untreated Fischer rats and rats treated with irinotecan with 100, 150 and 200 mg/kg/d×3 alone and in combination with Elsiglutide (1.8 mg/kg/d×4) were examined histologically.
(§3) Histologic analysis using sternum bone marrow and spleen were carried out on day 9 (6 days after the administration of the last irinotecan dose on day 3). Bone marrow and spleen specimens were fixed in buffered formalin (10%) for 48 hours. The entire sternum and spleen were removed during autopsy at the end of the experiments on day 9. The samples were put in 10% buffered formalin for 48 hours in order to get appropriate fixation. After that the sternum was decalcified in a Rapid Decalcifier (RDO) from Apex Engineering Products Corporation (Aurora, Ill., USA) for 17 minutes when the sternum could be bent easily with fingers. When decalcification was complete, samples were taken out of solution and put under cold running water for 60 minutes to remove the decalcification solution containing hydrochloric acid as an active ingredient. Then the decalcified bone marrow and spleen specimen were processed, embedded in paraffin, cut (5 u) and stained conventionally with hematoxylin and eosin (HE). The HE stained slides were used for general orientation and evaluation under light microscope using various magnifications. […]

The subject of series [3] is bone marrow of rat sternum. Nature of the series: Histopathological evaluation of sternum bone marrow. Format: in vivo. As to conditions: Group 8, irinotecan 200 mg/kg i.v.; 5 dead animals. As to the method: as §2, §3
The test system of series [4] is Fischer rats. Description: Complete blood cell count (CBC) analysis of peripheral blood. Format: in vivo, rat. As to the method:
8 to 12-week-old female Fischer 344/N rats (body weight 160-200 g) were obtained from Harlan Sprague Dawley Inc. (Indianapolis, Ind.).
Irinotecan was purchased as a ready-to-use formulation solution at a concentration of 20 mg/ml (100 mg in a 5 ml vial). For a rat of 150-200 g, an administration up to 2 ml solution (dose of 200 mg/kg/d×3) was required.
(§4) Elsiglutide was administered by subcutaneous (S.C) route at 1.8 mg/kg/day once a day for 4 days. Three doses were administered 30 minutes prior to each daily intravenous (I.V) dose of irinotecan. Only the fourth dose of elsiglutide was administered 24 hours after the last dose of irinotecan. Irinotecan was administered by intravenous (I.V) injection at the maximum tolerated and therapeutic dose, 100, 150, 200 mg/kg/day for 3 days.
Hematological (CBC) Analysis • Complete blood cell count (CBC) analysis (days 0, 4, and 9) • From peripheral blood 14 markers, WBC (differential: neutrophils, lymphocytes, eosinophils, monocytes, basophils) and RDW-SD, RBC, HGB, HCT, MCV, MCH, MCHC, and Platelets were analyzed.
The statistical analysis of complete blood cells (CBC) results was carried out. The differences between the mean values in the different treatment groups were analyzed for significance.
(§5) Treatment groups and time when specific acquisition of tissues was obtained are outlined below. Fischer Rats (Female), weighing 150 to 180 g (8-12 weeks) were utilized. • Control, histology, d 9 and CBC, baseline, day 4 and day 9 • Control vehicle, histology, d 9 and CBC baseline, d 4 and d 9 • Irinotecan 100 mg/kg/d×3, I.V., histology, d 9 and CBC, baseline, d 4 and d 9 • Irinotecan 150 mg/kg/d×3, I.V., histology, d 9 and CBC, baseline, d 4 and d 9, and CBC, baseline, d 4 and d 9 • Irinotecan 200 mg/kg/d×3, I.V., histology 9, and CBC, d 4 and d 9 • Elsiglutide 1.8 mg/kg/d×4, S.C., histology, d 9 and CBC, baseline, d 4 and d 9 • CBC, baseline, d 4 and d 9 • Elsiglutide 1.8 mg/d×4, S.C+Irinotecan 150 mg/kg/d×3, I.V, histology, d 9, and CBD baseline, d 4 and d9 • Elsiglutide 1.8 mg/d×4, S.C.+Irinotecan 200 mg/kg/d×3, I.V, histology, d 9, and CBC d 4 and d 9 Each treatment groups consisted of 10 rats for histology of bone marrow, spleen and peripheral blood analysis, and for survivors. Evaluation of peripheral blood was carried out on day zero (0), four (4) and day nine (9), bone marrow and spleen analysis after (necropsy) was carried out on day nine (9).

Series [5] concerns Fischer rats. Description: Survival / drug induced lethality. As to conditions: for rats died because of toxicity: days 6 and 7. The class given is in vivo, rat. As to the method: as §4
10 rats were assessed for survival up to 4 weeks after treatments. During the study, the kinetics of drug induced toxicities in animals (weight loss/gain, stomatitis, lethality were monitored daily during the first 2 weeks then twice a week thereafter up to 4 weeks in the survival phase. At the end of the survival phase the rats were sacrificed.
as §5

For series [6] the following is noted: enzymatic degradation by DPP IV in addition to renal clearance; cited from earlier work.
Where [7] appears, read: irinotecan 200 mg/kg/day × 3, 5 dead rats, day 6 and day 7.

The values that follow come from patent US20180177849A1, “Therapeutic Uses of Elsiglutide” (HELSINN HEALTHCARE SA, priority 2015, published 2018).

On to `O=c1[nH]cc(F)c(=O)[nH]1` [5-FU, 5-fluorouracil], for which the MTD in series [1] was found to be 100 mg/kg. Also, in series [2], the “overall tumor growth inhibition” value worked out at 30%.

For `CCc1c2c(nc3ccc(OC(=O)N4CCC(N5CCCCC5)CC4)cc13)-c1cc3c(c(=O)n1C2)COC(=O)[C@]3(O)CC` [Irinotecan], the “extramedullary hematopoiesis in spleen” value in the series on spleen of Fischer rats is on record as “did not show any sign of extramedullary hematopoiesis”. The compound also yielded an MTD in series [1] of 100 mg/kg. Also, the “overall tumor growth inhibition” value in series [2] is 30%. In addition, the “decrease (myelosuppression) in hematopoiesis of sternum bone marrow” value in series [3] was 95-98%. Also, in the series with Fischer rats [4] (FIG. 1, Day 4), the Platelet/Group entry was “did not change” and the RBC/Group result is on record as “did not change”. Moreover, the WBC/group result with Fischer rats [4] (FIG. 1, Day 4, after each dose of irinotecan) is reported as “decreased”. In the series on Fischer rats [4] (FIG. 1, Day 9, irinotecan alone treated group), the WBC/group result was “did not reach the normal level”. For the same compound, in the series on Fischer rats [4] (FIG. 1, after 200 mg/kg irinotecan), the Platelet/Group count result is “decreased”. In the series with Fischer rats [4] (setting [7]), the “Eosinophils Mean Value” came to 0.42, the “Lymphocytes Mean Value” worked out at 1.55, the “Monocytes Mean Value” amounted to 0.05 and the WBC Mean Value was 2.18 10^3/µL. The “MCV Mean Value” in the series on Fischer rats [4] (irinotecan 200 mg/kg/day × 3, 5 dead rats, day 6 and day 7, in fL (unit assumed)) is on record as 47.96. The “MCHC Mean Value” with Fischer rats [4] (irinotecan 200 mg/kg/day × 3, 5 dead rats, day 6 and day 7, in g/dL (unit assumed)) amounted to 36.52. Also, the rats died result with Fischer rats [5] (Group 5, irinotecan 150 mg/kg i.v., day 8, 5 rats per group) was “One”. Moreover, in the series with Fischer rats [5] (Group 8, irinotecan 200 mg/kg i.v., day 7), the “animals died with severe diarrhea” value was “One”. Moreover, the “rats in moribund condition with acute diarrhea” value in the series with Fischer rats [5] (Group 8, irinotecan 200 mg/kg i.v., sacrificed before day 9) worked out at 4. Moreover, the “rats died because of toxicity” value in the series on Fischer rats [5] (irinotecan 150 mg/kg/d×3) was 10%. Besides, in the series with Fischer rats [5] (irinotecan 200 mg/kg/d×3), the “rats died because of toxicity” value is “Fifty”. In the series on Fischer rats [5] (irinotecan 200 mg/kg/d×3 alone or in combination with elsiglutide), the “animals which survived treatment” value came to 50%.

For the compound Glucagon-like-peptide-2 [GLP-2(1-33)], the half-life result in series [6] is given as “about 7 minutes”.
